Test results: patent publication US11680196B2, “Use of biodegradable hydrocarbon fluids as heat-transfer media” (TOTAL MARKETING SERVICES, priority 2016, dated 2023)

Assay: Thermal stability, percentage of decomposition (GB/T 23800-2009, modified)
Assay type: physicochemical
Settings: after 500 hours at 320° C.
Method: The thermal stability has been evaluated in the present invention by measuring, according to the GB/T 23800-2009 standard, the percentage of decomposition of the fluid. The test performed in the present example differs from the standard by the temperature and the duration of the test. According to the example, the percentage of decomposition of the fluid has been measured after 500 hours at 320° C.
The fluid of Ex. 3 according to the invention and defined above has been compared with other commercial fluids: an alkylbenzene fluid, a dibenzyltoluene isomer, a mineral base oil and a hydrotreated mineral base oil.

- Thermal stability (% of decomposition): 6.9%
Substance: dibenzyltoluene isomer
